Data set [1] can be described thus: Plasma concentration in RjOrl:Swiss CD-1 mouse at 10 mg/kg, po administered as single dose measured after 4 to 24 hrs by LC-MS analysis. The following applies: in vivo. The format is ADME, organism-based.
Data set [2] is described as follows: Tmax in RjOrl:Swiss CD-1 mouse at 10 mg/kg, po administered as single dose measured after 1 to 24 hrs by LC-MS analysis. The format is ADME, organism-based. The following applies: in vivo.
Data set [3] in a line: Half life in RjOrl:Swiss CD-1 mouse at 10 mg/kg, po administered as single dose measured after 1 to 24 hrs by LC-MS analysis. Type of data set: ADME, organism-based. The following applies: in vivo.
Data set [4] is described as follows: Cmax in RjOrl:Swiss CD-1 mouse at 10 mg/kg, po administered as single dose measured after 1 to 24 hrs by LC-MS analysis. Type of data set: ADME, organism-based. Details: dose 10 mg/kg, route oral. The following applies: in vivo.
The nature of data set [5]: Toxicity in RjOrl:Swiss CD-1 mouse assessed as induction of adverse effect at 10 mg/kg, po administered as single dose. The following applies: in vivo. The format is organism-based.
Data set [6] concerns the target T1, Peroxisome proliferator-activated receptor gamma (Homo sapiens, UniProt P37231).
T1 sequence (P37231 whole entry): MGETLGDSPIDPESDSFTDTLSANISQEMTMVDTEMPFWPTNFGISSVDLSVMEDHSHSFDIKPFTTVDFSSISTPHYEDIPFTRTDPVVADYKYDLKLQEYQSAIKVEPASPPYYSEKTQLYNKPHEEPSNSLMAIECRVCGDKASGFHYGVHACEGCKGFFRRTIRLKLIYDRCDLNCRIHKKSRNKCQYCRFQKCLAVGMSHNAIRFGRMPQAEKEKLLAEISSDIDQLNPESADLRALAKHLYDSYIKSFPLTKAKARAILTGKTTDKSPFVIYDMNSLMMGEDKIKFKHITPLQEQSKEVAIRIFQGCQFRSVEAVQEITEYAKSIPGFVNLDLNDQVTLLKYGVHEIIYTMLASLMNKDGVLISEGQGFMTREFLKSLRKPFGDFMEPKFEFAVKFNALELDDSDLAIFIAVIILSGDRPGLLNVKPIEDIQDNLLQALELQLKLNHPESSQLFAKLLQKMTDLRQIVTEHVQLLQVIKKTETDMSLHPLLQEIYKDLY
The experiment in a line: Agonist activity at recombinant human pFA-CMV fused PPARgamma expressed in HEK293T cells transfected with pFR-luciferase plasmid and pRL-SV40 plasmid incubated for 14 to 16 hrs by dual glo luciferase reporter gene assay. Type of data set: cell-based, HEK-293T.

Data set [7] can be described thus: Drug level in human serum. The following applies: read-out: Drug uptake. The format is ADME, cell-free.
Data set [8] has as its target T2, Retinoic acid receptor RXR-alpha (Homo sapiens, UniProt P19793).
T2 sequence (P19793 whole entry): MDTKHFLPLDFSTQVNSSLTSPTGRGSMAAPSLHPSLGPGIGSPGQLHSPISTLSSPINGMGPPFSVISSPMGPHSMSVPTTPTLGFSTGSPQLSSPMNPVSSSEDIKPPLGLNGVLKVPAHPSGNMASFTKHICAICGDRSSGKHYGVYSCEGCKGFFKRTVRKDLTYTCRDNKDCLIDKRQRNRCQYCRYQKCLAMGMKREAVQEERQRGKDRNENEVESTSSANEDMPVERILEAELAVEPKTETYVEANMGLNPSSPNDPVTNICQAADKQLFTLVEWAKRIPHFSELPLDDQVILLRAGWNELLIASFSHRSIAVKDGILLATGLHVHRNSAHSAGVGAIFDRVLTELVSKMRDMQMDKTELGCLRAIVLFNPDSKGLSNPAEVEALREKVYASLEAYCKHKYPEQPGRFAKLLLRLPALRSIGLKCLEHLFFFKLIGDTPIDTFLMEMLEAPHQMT
Kind of data set: Agonist activity at recombinant human pFA-CMV fused RXRalpha LBD expressed in HEK293T cells transfected with pFR-luciferase plasmid and pRL-SV40 plasmid incubated for 14 to 16 hrs by dual glo luciferase reporter gene assay. The format is cell-based, HEK-293T. The following applies: hek-293t.

For data set [9], the target named is T1, Peroxisome proliferator-activated receptor gamma. The experiment in a line: Binding affinity to recombinant PPARgamma LBD (unknown origin) by isothermal titration calorimetry. For orientation: Isothermal titration calorimetry measures the heat released or taken up as one component is titrated into another.
The nature of data set [10]: Drug level in euthyroid human serum by RIA. The format is ADME, cell-free. The following applies: read-out: Drug uptake.
In data set [11] the test system is HEK-293T. The experiment in a line: Activation of renilla luciferase expressed in HEK293T cells at 3 uM incubated for 14 to 16 hrs by reporter gene assay. Type of data set: cell-based. The following applies: Renilla reniformis. (In a reporter assay the amount or activity of a reporter protein is the signal.)

The source made the active and inactive calls.

Consider `O=C(O)Cc1cc(Br)c(Oc2cc(I)c(O)c(I)c2)c(I)c1`, for which the concentration in data set [1] was found to be 40 nM. Besides, the time to peak (Tmax) in [2] was determined as 1 h. For the same molecule, the half-life in data set [3] is 19.4 h. This molecule displayed a peak concentration (Cmax) in data set [4] of 3180 ng/mL. The Activity entry in data set [5] is reported as “Non-Toxic”.
Take `N[C@@H](Cc1cc(Br)c(Oc2cc(I)c(O)c(I)c2)c(I)c1)C(=O)O`: the concentration in [1] stood at 40 nM. In addition, in data set [2], the Tmax came to 2 h. For the same molecule, in data set [3], the half-life is 8.7 h. In addition, in data set [6], the EC50 amounted to 12.9 µM. Also, the peak level in [4] (Cmax) was 4480 ng/mL. The Activity entry in data set [5] was “Non-Toxic”.
With `N[C@@H](Cc1cc(I)c(Oc2ccc(O)c(I)c2)c(I)c1)C(=O)O` [LIOTHYRONINE], the 50% effective concentration (EC50) was 5.8 µM in [6] and “Not Active” in data set [8]. In addition, the concentration in data set [7] is 1.3 to 2.1 nM. The Kd in data set [9] is 0.71 µM.
Regarding `N[C@@H](Cc1ccc(Oc2cc(I)c(O)c(I)c2)c(I)c1)C(=O)O` [REVERSE TRIIODOTHYRONINE], the results for the EC50 in data set [6] and in data set [8] were 3.8 µM and “Not Active”, respectively. In addition, in [9], the Kd came out at 0.63 µM.
As to `O=C(O)Cc1cc(I)c(Oc2ccc(O)c(I)c2)c(I)c1` [TIRATRICOL], in data set [10], the concentration stood at 0.24 nM. Further, the outcome in [11] was inactive.

A word on the Tmax: it is the time at which the peak concentration occurs. Usually half-life stands for the time needed for the level to fall by half in the phase considered. A lower half-life goes with fast loss. For orientation: Cmax means the highest concentration seen after dosing. One may read the EC50 as the concentration that produces a half-maximal response. In general, Kd refers to the constant that tells how readily two partners part at equilibrium.

The record behind these values is ChEMBL document CHEMBL4627384, “l-Thyroxin and the Nonclassical Thyroid Hormone TETRAC Are Potent Activators of PPARγ” (J Med Chem, 2020).
